Key:
Type in all cases: cell-based
HTT = assay: Mini-gene reporter assay-HTT (firefly luciferase, exon inclusion); conditions: for EC50: Homo sapiens, HTT mini-gene firefly luciferase reporter transiently transfected into HEK293 cells; for Emax at 5 µM: HTT Minigene, read-out: % Efficacy at 5 μM
Outline: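 HEK293 cells transiently transfected with a pcDNA3.1 mini-gene carrying the alternatively skipped exon with flanking introns and exons fused to firefly luciferase were incubated with compound, in duplicate. Exon inclusion raises luciferase luminescence. EC50 came from Levenberg-Marquardt curve fitting.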

[1] = system: HTT (exclusion transcript); assay: RT-qPCR assay to quantify changes in HTT splice isoforms: exclusion transcript; conditions: Homo sapiens, SK-N-SH cells, approximately 96 hours, GAPDH reference
Protocol: (§1) SK—N—SH cells were seeded at 8.5e3 per well in a 96 well plate, in […] (×4 plates, quadruplicate) and treated with the indicated compounds at different concentrations with a final DMSO concentration of 0.5%. Vehicle controls were set up by diluting DMSO 1:200. Cells were returned to a humidified incubator at 37° C., 5% CO2 and treated for approximately 96 hours.
(§2) RNA was isolated from each well using QIAGEN RNeasy mini columns (cat #74004) as per the manufacturer's instructions. Each condition was done in quadruplicate as mentioned above to allow for adequate starting template for downstream analyses. These quadruplicates were pooled (by condition) into single replicates at the cell lysis step. Reverse-transcription was done using the Applied Biosystems High-Capacity cDNA Reverse Transcription Kit (cat #4368814), per the manufacturer's instructions, using approximately half of the harvested RNA. The cDNA was diluted 1:10 in nuclease-free water, and qPCR was done using Applied Biosystems PowerUp SYBR Green Master Mix (cat #A25742) per the manufacturer's instructions. Cycling conditions are primers are detailed below. Each sample was run in technical duplicates.
(§3) Data were analyzed using the 2-DDCT method. GAPDH was used as the reference gene, and vehicle (i.e. DMSO only) treated cells were used as the reference/untreated cell populations. Relative expression of the HTT transcripts was plotted using Graphpad Prism.

[2] = system: HTT (inclusion transcript); assay: RT-qPCR assay to quantify changes in HTT splice isoforms: inclusion transcript; conditions: Homo sapiens, SK-N-SH cells, approximately 96 hours, GAPDH reference
Protocol: as §1, §2, §3

| EC50 (HTT) [nM] | EC50 [1] [nM] | EC50 [2] [nM] | Compound | Emax at 5 µM (HTT) [%] |
| --- | --- | --- | --- | --- |
| ≥ 1000 | < 50 | > 1000 | CC(C)N1CC(c2ccc(-c3ccc(-c4ccc5nn(C)cc5c4)cc3O)nn2)C1 [Compound 23, 2-(6-(1-isopropylazetidin-3-yl)pyridazin-3-yl)-5-(2-methyl-2H-indazol-5-yl)phenol] | – |
| ≥ 1000 | 50 to 500 | – | CCN1CC(c2ccc(-c3ccc(-c4cc(C)c5nc(C)cn5c4)cc3O)nn2)C1 [Compound 36, 5-{2,8-dimethylimidazo[1,2-a]pyridin-6-yl}-2-[6-(1-ethylazetidin-3-yl)pyridazin-3-yl]phenol] | – |
| 500 to 1000 | < 50 | – | Cn1cc2cc(-c3ccc(-c4ccc(C5CN(C6CCOCC6)C5)nn4)c(O)c3)ccc2n1 [Compound 22, 5-(2-methyl-2H-indazol-5-yl)-2-{6-[1-(oxan-4-yl)azetidin-3-yl]pyridazin-3-yl}phenol] | – |
| 50 to 500 | < 50 | 500 to 1000 | COc1cc(-c2ccc(-c3ccc(C4CN(C)C4)nn3)c(O)c2)cc2cn(C)nc12 [Compound 28, 5-(7-methoxy-2-methyl-2H-indazol-5-yl)-2-[6-(1-methylazetidin-3-yl)pyridazin-3-yl]phenol] | – |
| 50 to 500 | < 50 | 500 to 1000 | Cc1cn2cc(-c3ccc(-c4ccc(C5CN(C)C5)nn4)c(O)c3)cc(F)c2n1 [Compound 12, 5-{8-fluoro-2-methylimidazo[1,2-a]pyridin-6-yl}-2-[6-(1-methylazetidin-3-yl)pyridazin-3-yl]phenol] | – |
| 50 to 500 | < 50 | > 1000 | CCN1CC(c2ccc(-c3ccc(-c4ccc5nc(C)cn5n4)cc3O)nn2)C1 [Compound 38, 2-[6-(1-ethylazetidin-3-yl)pyridazin-3-yl]-5-{2-methylimidazo[1,2-b]pyridazin-6-yl}phenol] | – |
| 50 to 500 | < 50 | < 50 | Cc1cn2cc(-c3ccc(-c4ccc(C5CN(C(C)C)C5)nn4)c(O)c3)cc(F)c2n1 [Compound 15, 5-{8-fluoro-2-methylimidazo[1,2-a]pyridin-6-yl}-2-{6-[1-(propan-2-yl)azetidin-3-yl]pyridazin-3-yl}phenol] | – |
| – | – | – | Cc1cn2cc(-c3ccc(-c4ccc(C5CN(C(C)Cc6cnccn6)C5)nn4)c(O)c3)cc(F)c2n1 (stereo not drawn) [Compound 115] | 25 to 75 |
| ≥ 1000 | 50 to 500 | 500 to 1000 | Cc1cn2cc(-c3ccc(-c4ccc(C5CN(C)C5)nn4)c(O)c3)cc(C(F)(F)F)c2n1 [Compound 26, 5-[2-methyl-8-(trifluoromethyl)imidazo[1,2-a]pyridin-6-yl]-2-[6-(1-methylazetidin-3-yl)pyridazin-3-yl]phenol] | – |
| 50 to 500 | – | – | Cn1cc2cc(-c3ccc(-c4ccc(C5CNC5)nn4)c(O)c3)ccc2n1 [Compound 16, 2-[6-(azetidin-3-yl)pyridazin-3-yl]-5-(2-methyl-2H-indazol-5-yl)phenol] | – |
| 50 to 500 | – | – | Cc1cn2cc(-c3ccc(-c4ccc(C5CNC5)nn4)c(O)c3)ccc2n1 [Compound 2, 2-(6-(azetidin-3-yl)pyridazin-3-yl)-5-(2-methylimidazo[1,2-a]pyridin-6-yl)phenol] | – |
| – | – | – | Cc1cn2cc(-c3ccc(-c4ccc(C5CN(C6CCOC6)C5)nn4)c(O)c3)cc(F)c2n1 (stereo not drawn) [Compound 89] | > 750 |
| 500 to 1000 | – | – | Cc1cn2cc(-c3ccc(-c4ccc(C5CN(C6CCOCC6)C5)nn4)c(O)c3)cc(F)c2n1 [Compound 18, 5-{8-fluoro-2-methylimidazo[1,2-a]pyridin-6-yl}-2-{6-[1-(oxan-4-yl)azetidin-3-yl]pyridazin-3-yl}phenol] | – |
| 500 to 1000 | – | – | Cc1cn2nc(-c3ccc(-c4ccc(C5CNC5)nn4)c(O)c3)ccc2n1 [Compound 31, 2-[6-(azetidin-3-yl)pyridazin-3-yl]-5-{2-methylimidazo[1,2-b]pyridazin-6-yl}phenol] | – |
| ≥ 1000 | – | – | CCOc1cc(-c2ccc(-c3ccc(C4CN(C5CCOCC5)C4)nn3)c(O)c2)cc2cn(C)nc12 [Compound 54, 5-(7-ethoxy-2-methyl-2H-indazol-5-yl)-2-{6-[1-(oxan-4-yl)azetidin-3-yl]pyridazin-3-yl}phenol] | – |
| ≥ 1000 | – | – | Cc1cn2cc(-c3cc(O)c(-c4ccc(C5CNC5)nn4)cc3F)cc(F)c2n1 [Compound 8, 2-[6-(azetidin-3-yl)pyridazin-3-yl]-4-fluoro-5-{8-fluoro-2-methylimidazo[1,2-a]pyridin-6-yl}phenol] | – |
| 50 to 500 | – | – | Cc1cn2nc(-c3ccc(-c4ccc(C5CN(C)C5)nn4)c(O)c3)ccc2n1 [Compound 37, 2-[6-(1-methylazetidin-3-yl)pyridazin-3-yl]-5-{2-methylimidazo[1,2-b]pyridazin-6-yl}phenol] | – |
| – | – | – | COc1cc(-c2ccc(-c3ccc(C4CN(C(C)C5CCOC5)C4)nn3)c(O)c2)cc2cn(C)nc12 (stereo not drawn) [Compound 151] | > 750 |
| – | – | – | Cc1cn2cc(-c3ccc(-c4ccc(C5CN(Cc6conc6C)C5)nn4)c(O)c3)cc(F)c2n1 [Compound 114] | < 25 |
| 500 to 1000 | – | – | Cn1cc2cc(-c3ccc(-c4ccc(C5CN(C6CCOC6)C5)nn4)c(O)c3)ccc2n1 (stereo not drawn) [Compound 45, 5-(2-methyl-2H-indazol-5-yl)-2-{6-[1-(oxolan-3-yl)azetidin-3-yl]pyridazin-3-yl}phenol] | – |
| ≥ 1000 | – | – | CN1CC(c2ccc(-c3ccc(-c4ccc5nn(C)cc5c4)cc3O)nn2)C1 [Compound 19, 5-(2-methyl-2H-indazol-5-yl)-2-[6-(1-methylazetidin-3-yl)pyridazin-3-yl]phenol] | – |

| Compound | EC50 (HTT) [nM] | EC50 [1] [nM] | EC50 [2] [nM] | Emax at 5 µM (HTT) [%] |
| --- | --- | --- | --- | --- |
| Cc1cn2nc(-c3ccc(-c4ccc(C5CNC5)nn4)c(O)c3)cc(C)c2n1 [Compound 3, 2-[6-(azetidin-3-yl)pyridazin-3-yl]-5-{2,8-dimethylimidazo[1,2-b]pyridazin-6-yl}phenol] | 50 to 500 | – | – | – |

Source: patent US20250042879A1, “HETEROCYCLIC SUBSTITUTED 1,3,4-THIADIAZOLE AND PYRIDAZINE COMPOUNDS AND METHODS OF USING THE SAME” (Rgenta Therapeutics, Inc., priority 2021, published 2025)
